Results taken from patent publication US11896615B2, “Immunotherapy methods and compositions involving tryptophan metabolic pathway modulators” (Juno Therapeutics, Inc., priority 2016, dated 2024).
pEC50: −log10 of the molar value. Entries after “also recorded” stand apart in the source; their conditions may differ.

What was measured:
[1] = system: anti-CD19 CAR-expressing T cells; test: Effect of tryptophan metabolites on CAR T proliferation with IDO1- target cells; assay type: cell-based, human; conditions: 96 hours; for CAR T cell proliferation: CD19.Daudi target cells, 0 to 100 μM; for CAR T cell numbers (CD3+ cells per well): CD19.K562 target cells, 6.25 to 100 μM
Experimental: Cells were stained for surface expression of CD4 and CD8. Proliferation of T cell populations was determined by flow cytometry, based on the extent of dilution of the CellTrace™ violet dye. […] The number of CD3^+ cells per well was determined using CountBright beads.

[2] = system: anti-CD19 CAR-expressing T cells; test: Proliferation of anti-CD19 CAR T cells co-cultured with IDO1- target cells (CD19.Daudi, K562.CD19); assay type: cell-based, human; conditions: co-culture with IDO1- cells, various concentrations
Experimental: (§1) Similar methods were used to assess the effect of the IDO1 inhibitor on proliferation of CAR-expressing T cells following co-culture of anti-CD19 CAR-expressing cells with either IDO1^+ cells (A549.CD19) or IDO1^− cells (K562.CD19). […] The average number of CAR T cell divisions was calculated based on peaks in dye dilution, and proliferation of CD4^+ and CD8^+ subsets was compared.

CD19.A549 = test: Cytolytic activity of anti-CD19 CAR T cells (Incucyte, NucRed-labeled targets); assay type: cell-based, human; conditions: 0 to 1000 nM, 0.25:1 E:T, up to approximately 340 hours
Experimental: Lysis of target cells was measured over time using the Incucyte quantitative cell analysis system (Essen BioScience) by assessing the staining intensity of cells for the NucRed dye.

[3] = system: CD4+ and CD8+ CAR-expressing T cells; test: CD25 surface expression on CD4+ and CD8+ CAR-expressing T cells (flow cytometry); assay type: cell-based, human
CAR T cells = test: CAR T cell proliferation in the presence of IDO1+ HS-5 bystander cells; assay type: cell-based, human; conditions: with or without HS-5 cells, 96 hours, various concentrations
Experimental: Proliferation of CAR T cells in the presence of IDO1-expressing bone marrow stromal cells or an IDO1 inhibitor was determined.

[4] = system: anti-CD19 CAR-expressing T cells; test: Proliferation of anti-CD19 CAR T cells co-cultured with IDO1+ CD19.A549 cells (CellTrace violet dilution, bead counts, microscopy); assay type: cell-based, human
Experimental: Cells were stained for expression of CD4 and CD8 and proliferation of T cell populations determined by flow cytometry, based on the extent of dilution of the CellTrace™ Violet dye.
Similar methods were used to assess proliferation of anti-CD19 CAR-expressing T cells generated from three different healthy donors following co-culture with CD19-expressing A549 target cells (CD19.A549).
The number of CAR T cells in each well was determined using CountBright Absolute Counting beads.
as §1
Cells were visualized at 72 hours and 120 hours.

[5] = system: anti-ROR1 CAR-expressing T cells; test: Proliferation of anti-ROR1 CAR T cells co-cultured with CD19.A549 cells; assay type: cell-based, human; conditions: 250 nM, E:T 3:1, 96 hours, compared to absence of inhibitor
Description: Similar methods were used to assess the effect of the IDO1 inhibitor on proliferation of anti-ROR1 CAR-expressing T cells cultured in the presence of antigen-expressing target cells.

[6] = system: anti-CD19 CAR-expressing T cells; test: Sustained expansion of anti-CD19 CAR T cells (% confluency over time); assay type: cell-based, human
Experimental: Expansion of anti-CD19 expressing CAR cells following co-culture with A549 adenocarcinoma human alveolar basal epithelial cells transduced with human CD19 (CD19.A549 cells) was assessed for over 10 days. […] Expansion was assessed based on % confluency in the culture as determined over time. […] The IDO1 inhibitor-promoted increase in expansion was sustained for more than 10 days in culture. The results were consistent with a conclusion that IDO-upregulation and/or IDO-dependent signaling can occur or be promoted following CAR-T antigen-specific activation and result in dampening of proliferation of the CAR-T cells, e.g., over a 5- or 10-day period, and that inhibition of IDO can in some contexts rescue such inhibition.

[7] = system: anti-CD19 CAR-expressing T cells; test: Cytokine release in co-culture supernatants; assay type: cell-based, human; conditions: for GM-CSF level in supernatant / IFNγ level in supernatant / TNFα level in supernatant: epacadostat 10, 100 or 1000 nM or supplemental tryptophan, compared to no addition; for IL-2 levels in supernatant: for up to 72 hours, levels decreased at 96 hours
[8] = system: anti-CD19 CAR-expressing cells; test: Intracellular cytokines after re-exposure to antigen following tryptophan starvation; assay type: cell-based, human; conditions: tryptophan supplementation in the subsequent culture
Experimental: Effect of tryptophan starvation on CAR-T function (proliferation, cytokine production) following subsequent re-exposure to antigen was assessed. […] The cells were harvested, counted and re-cultured with fresh CD19-expressing A549 target cells (CD19.A549) in tryptophan-depleted media (media from the “no tx” cultures at 96 hours) with or without supplemented tryptophan. Intracellular levels of interferon-gamma (IFNγ) and interlekukin-2 (IL-2) were assessed by intracellular cytokine staining, and the percentage of CD4+ or CD8+ cells deemed positive for the given intracellular cytokine production was determined.

[9] = system: anti-CD19 CAR-expressing T cells; test: CAR T cell counts and proliferation with IDO1 inhibitor or supplemental tryptophan in co-culture with CD19.A549; assay type: cell-based, human; conditions: 5 μg/mL added every 24 hours, 96 hours with IDO1+ A549.CD19, compared to no treatment
Experimental: Proliferation was assessed by flow cytometry, and CAR+ T cell count in each well was determined.

CAR-expressing T cells = test: CAR T function in tryptophan-depleted media with supplemental tryptophan; assay type: cell-based, human
Experimental: Effects of tryptophan starvation on antigen-induced function of CAR-T cells were assessed. CAR-expressing T cells labeled with CellTrace™ violet were co-cultured with target cells (K562 human myelogenous leukemia target cells transduced with CD19 (CD19.K562)) that had been observed not to induce IDO1-expression, in tryptophan-depleted media, with or without the addition of various concentrations of supplemental tryptophan. Tryptophan-containing media was used as a control (Trp Control). Target cell count and proliferation (assessed by flow cytometry via CTV dye dilution; MFI=mean fluorescence intensity).
A similar study was carried out to assess effects of tryptophan-starvation, but in which CAR-mediated function was induced using an agonistic anti-idiotype antibody specific for the CAR as opposed to antigen-expressing target cells. Anti-CD19 CAR-expressing cells, generated substantially as described in Example 1, were stimulated for 96 hours using plate-bound anti-idiotypic agonistic antibody, in tryptophan-depleted media, alone or supplemented with various concentrations of tryptophan. The number of CD3^+ cells per well was determined. Representative results from exemplary studies are shown in FIG. 15D and FIG. 15E (results from three different donors). […]

[10] = system: anti-CD19 CAR-expressing T cells; test: Recovery from tryptophan starvation; assay type: cell-based, human; conditions: supplemental tryptophan added after starvation, out to 96 hours
Experimental: Anti-CD19 CAR-expressing T cells, generated as described in Example 1, were cultured in tryptophan starvation conditions (chemically defined tryptophan-free media) for 24, 48, 72 or 96 hours (24, 48, 72 or 96 hr Trp starv.). After tryptophan starvation for the indicated time, supplemental tryptophan was added to the cultures. The cells then were cultured in the presence of tryptophan until the cells were harvested at 24, 48, 72 or 96 hours. As a control, reflecting tryptophan sufficient conditions, cells were cultured in tryptophan-sufficient media for each respective time period (complete media). The number of CD3^+ cells per well was assessed. Intracellular production of interferon-gamma (IFNγ) and tumor necrosis factor alpha (TNFα) was assessed by intracellular cytokine staining, and the percentage of CD4+ or CD8+ cells positive for cytokine accumulation was determined.

dendritic cells = test: IDO1 expression in dendritic cells after IFNγ and/or LPS stimulation; assay type: cell-based; conditions: dendritic cells (DC), 24 hours stimulation
Experimental: To assess whether myeloid cells present in the TME, including tumor-associated macrophages and dendritic cells, can be induced to express IDO1, the expression level of IDO1 in dendritic cells and macrophages upon stimulation by interferon-gamma (IFNγ) or lipopolysaccharide (LPS) was determined by flow cytometry. Dendritic cells were subject to monoculture with GM-CSF and interleukin-4 (IL-4), and macrophages were subject to monoculture with M-CSF, for 6 days. After monoculture, the cells were stimulated with IFNγ and/or LPS for 24 hours, and IDO1 expression was determined by flow cytometry.

[11] = system: JeKo-1, Daudi, Raji and Nalm-6 cells; test: IDO1 expression in other CD19+ tumor cell lines after IFNγ incubation; assay type: cell-based, human; conditions: incubation with IFNγ under similar conditions
Experimental: (§2) A549 adenocarcinoma human alveolar basal epithelial cells transduced with human CD19 (CD19.A549 cells, which may also referred to as A549.CD19 cells) were assessed for expression of indoleamine-pyrrole 2,3-dioxygenase 1 (IDO1) following stimulation with interferon-gamma (IFNγ). CD19.A549 cells were stimulated with IFNγ for 24 or 48 hours and IDO1 levels were assessed by flow cytometry using an anti-IDO antibody. […] Increased IDO1 expression was not detected in other CD19^+ tumor cell lines in this assay, including JeKo-1, Daudi, Raji and Nalm-6 cells, following incubation with IFNγ under similar conditions.

[12] = system: HS-5 human bone marrow stromal cells; test: IDO1 expression in HS-5 bone marrow stromal cells after IFNγ; assay type: cell-based; conditions: 20 ng/mL recombinant human IFNγ, 24 hours
Experimental: Expression level of Indoleamine-Pyrrole 2,3-Dioxygenase 1 (IDO1) was determined in bone marrow stromal cells upon stimulation by interferon-gamma (IFNγ) or with co-incubation with CAR-expressing T cells. Bone marrow stromal cells are exemplary of bystander cells, e.g., non-tumor cells, present in the TME.
HS-5 human bone marrow stromal cells were stimulated with 20 ng/mL recombinant human IFNγ for 24 hours.

CD19.A549 cells = test: IDO1 expression in CD19.A549 cells after IFNγ stimulation (flow cytometry); assay type: cell-based, human
Experimental: as §2
CD19.A549 cells were cultured with various concentrations of recombinant human IFNγ.

[13] = supplemental tryptophan or 100 nM or 1000 nM epacadostat, co-culture with CD19.A549

Molecule: Nc1c(O)cccc1C(=O)O [3-HAA, 3-hydroxyanthranilic acid]
- CAR T cell proliferation [1]: did not inhibit CAR T cell proliferation
- CAR T cell numbers (CD3+ cells per well) [1]: did not substantially affect CAR T cell numbers

Molecule: Nc1ccccc1C(=O)C[C@H](N)C(=O)O [L-Kynurenine]
- CAR T cell proliferation [1]: did not inhibit CAR T cell proliferation
- CAR T cell numbers (CD3+ cells per well) [1]: did not substantially affect CAR T cell numbers

Molecule: NS(=O)(=O)NCCNc1nonc1C(=NO)Nc1ccc(F)c(Br)c1 [epacadostat, 4-({2-[(aminosulfonyl)amino]ethyl}amino)-N-(3-bromo-4-fluorophenyl)-N′-hydroxy-1,2,5-oxadiazole-3-carboximidamide]
- proliferation of CD4+ and CD8+ CAR-expressing T cells [2]: not when co-cultured with IDO1^− cells (Daudi)
- NucRed dye intensity of target cells (AUC) (CD19.A549): dose-dependent reduction of NucRed dye intensity
- CD25 surface expression (MFI) ([3]; 96 hours co-culture with IDO1+ CD19.A549 cells, 1:1 E:T): reduced
- CD25 surface expression ([3]; 96 hours co-culture with IDO1- CD19.Daudi cells): not affected
- CD25 surface expression (MFI) [3, 13]: reduced
- proliferation of CAR T cells (CAR T cells): not substantially affected
- number of CAR T cells per well ([4]; 250 nM, 96 hours, three donors, compared to absence of inhibitor): higher number CAR T cells
- CAR-expressing T cells visualized by microscopy ([4]; 1 μM, 120 hours, 1:1 E:T, compared to no inhibitor): large increase in CAR-expressing T cells
- pEC50 ([4]; Homo sapiens, co-culture with A549 cells (IDO1+), 1:1 E:T, read-out: estimated EC50 (CAR T proliferation)): ~6.65
- proliferation of CD4+ and CD8+ CAR-expressing T cells ([4]; co-culture with IDO1+ CD19.A549 cells, 96 hours, various concentrations): dose-dependent increase in proliferation; also recorded: increased proliferation
- number of CAR T cells [5]: higher number of CAR T cells
- expansion of CAR-expressing T cells (% confluency) ([6]; 0 to 1000 nM, up to approximately 340 hours): increasing expansion of CAR-expressing T cells
- duration of inhibitor-promoted increase in expansion ([6]; in culture with CD19.A549): over 10 days
- TNFα production ([7]; 48 hours, 1:1 E:T with CD19.A549, various concentrations): increased TNFα production
- GM-CSF level in supernatant [7]: increased level
- IFNγ level in supernatant [7]: increased level
- TNFα level in supernatant [7]: increased level
- IL-2 levels in supernatant [7]: increased

Molecule: N[C@@H](Cc1c[nH]c2ccccc12)C(=O)O [tryptophan]
- reduction in cytokine production (IFNγ, IL-2) after re-encounter with target cells [8]: partially restored
- CD25 surface expression (MFI) [3, 13]: reduced
- proliferation of CAR-T cells [9]: restored proliferation of the CAR-T cells
- inhibitory effect of tryptophan starvation on antigen-specific function of CAR T cells (CAR-expressing T cells; CD19.K562 target cells, tryptophan-depleted media): reversed
- inhibition of CAR-mediated function by tryptophan starvation (CD3+ cells per well) (CAR-expressing T cells; plate-bound anti-idiotypic agonistic antibody, 96 hours): restored
- proliferative capacity after tryptophan starvation [10]: did not completely restore proliferative capacity
- GM-CSF level in supernatant [7]: increased level
- IFNγ level in supernatant [7]: increased level
- TNFα level in supernatant [7]: increased level
- IL-2 levels in supernatant [7]: increased

Molecule: IFNγ: interferon-gamma (IFNγ), recombinant human
- IDO1 expression (dendritic cells): induced IDO1 expression
- IDO1 expression [11]: not detected
- IDO1 expression [12]: increase of IDO1 expression
- IDO1 expression (CD19.A549 cells; IFNγ stimulation for 24 and 48 hours, compared to unstimulated cells): increased expression of endogenous IDO1
- IDO1 expression (MFI) (CD19.A549 cells; various concentrations of recombinant human IFNγ): dose-responsive increase in IDO1 expression
